Measured values from patent US20120245188A1, “METHODS OF TREATING MEMORY LOSS AND ENHANCING MEMORY PERFORMANCE” (priority 2010, published 2012).

Columns and labels:
[1] = tested on: seventeen month old male Fischer-344 rats; assay: Spatial reference memory, Morris Water Maze in aged rats; format: in vivo, rat
Excerpt: Working memory can also be tested using the Morris water maze. In general, the Morris water maze is a large round tub of opaque water with […] located 1-2 cm under the water's surface. The rat is placed on a start platform. The rat swims around until it finds the other platform to stand on. External cues, such as patterns or the standing researcher, are placed around the pool in the same spot every time to help the rat learn where the end platform is. The researcher measures how long it takes for a rat to find hidden platform, by changing or moving and using different spatial cues. The Morris water maze tests the spatial learning, cognitive maps and memory. The rats under the Morris water maze test may be given particular drugs or treatment conditions to see if these impair or enhance short-term memory. In one embodiment, the subject may be administered a pharmaceutical composition comprising SB 239063. The role of SB239063 on spatial memory performance was tested in the aged rat model. […] Dosing was initiated three days prior to testing and continued throughout the experiment until sacrifice (FIG. 1). Rats were tested on a maze battery including the spatial reference memory Morris maze (MM), and a delay match to sample task (DMS) where the spatial location of the platform needed to be updated on a daily basis, thereby evaluating short term memory (FIG. 2). Spatial Reference Memory—Morris Water Maze: For the Morris Water Maze, 6 trials per day for 3 days were carried out. […] Mean (±Standard Error) swim distance across all days of testing for all rats are depicted in FIG. 3.

[2] = tested on: seventeen month old male Fischer-344 rats; assay: Working memory, Delay Match to Sample water maze in aged rats; format: in vivo, rat; details: high dose 30 mg/kg/day i.p.
Procedure: Other methods of evaluating spatial and visual working memory include Delayed-Match to Sample (DMS) asymmetrical 3-choice task, which is illustrated in detail in the Example section. The visible platform task was used to confirm that animals have the ability to perform the procedural components of water-escape maze testing, including the visual and motoric capacities necessary to swim towards and climb onto a platform. The role of SB239063 on spatial memory performance was tested in the aged rat model. […] Dosing was initiated three days prior to testing and continued throughout the experiment until sacrifice (FIG. 1). Rats were tested on a maze battery including the spatial reference memory Morris maze (MM), and a delay match to sample task (DMS) where the spatial location of the platform needed to be updated on a daily basis, thereby evaluating short term memory (FIG. 2). […] There was a significant Trial×Treatment Interaction in the process, and the swim distance F(5,10)=2.298 (p=0.0151). The high-dose receiving group learned the task faster, indicated by committing fewer errors compared to vehicle-only rats on trial 3 (FIG. 4B).

[3] = tested on: adjuvant-induced arthritis; details: 10 mg/kg, administered orally, rats; cited from earlier work
moderate stroke = details: oral administration of 15 mg/kg before moderate stroke; cited from earlier work
cultured neurons = details: cited from earlier work
β form of p38 MAPK = β form of p38 MAPK (Homo sapiens, UniProt Q15759); details: cited from earlier work
Chain of β form of p38 MAPK (Q15759 whole entry): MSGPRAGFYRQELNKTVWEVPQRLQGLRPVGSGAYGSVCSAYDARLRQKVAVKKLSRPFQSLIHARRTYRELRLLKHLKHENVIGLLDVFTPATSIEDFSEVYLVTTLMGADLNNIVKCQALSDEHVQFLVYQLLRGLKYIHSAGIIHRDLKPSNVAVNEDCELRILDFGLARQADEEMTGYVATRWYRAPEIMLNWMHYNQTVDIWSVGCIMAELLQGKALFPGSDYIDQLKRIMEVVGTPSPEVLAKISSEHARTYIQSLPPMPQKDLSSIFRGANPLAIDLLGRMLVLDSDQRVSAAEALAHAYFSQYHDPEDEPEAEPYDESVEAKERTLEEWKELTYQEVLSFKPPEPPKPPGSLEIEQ

## COc1nccc(-c2c(-c3ccc(F)cc3)ncn2[C@H]2CC[C@H](O)CC2)n1 [SB239063, trans-1-(4-hydroxycyclohexyl)-4-(4-fluorophenyl)-5-(2-methoxypyridimidin-4-yl)imidazole]
[1]; all groups (15 and 30 mg/kg), p<0.005
  localization to the platformed quadrant during the probe trial by the last day of testing: localized to the platformed quadrant
[1]; high dose 30 mg/kg daily i.p., F(1,10)=1.531, p=0.244
  linear trend for swim distance scores across days: did not show a linear trend
[1]; high dose 30 mg/kg/day i.p.
  Morris Water Maze spatial reference memory performance as days progressed: impaired
[1]; low dose 15 mg/kg daily i.p., F(1,10)=19.253, p=0.001
  linear trend for swim distance scores across days: showed a significant linear trend
[1]; low dose 15 mg/kg/day i.p.
  Morris Water Maze spatial reference memory performance as days progressed: exhibited significant learning
[2]; Fisher post hoc p=0.011
  Three Choice Task errors on trial 3 compared to vehicle-only rats: fewer errors
[2]; p=0.01
  performance on DMS compared to vehicle-treated animals (learning of the new platform location): enhanced performance
[3]
  reduction of adjuvant-induced arthritis: 51%
Moderate stroke
  reduction of infarct volume: 48%
  reduction of neurological deficits: 42%
Cultured neurons; NMDA (N-methyl D-aspartate)
  protection against mild excitotoxic neuronal injury caused by NMDA: protect against mild excitotoxic neuronal injury
Cultured neurons; cultured neurons
  protection against cell death induced by oxygen glucose deprivation (OGD) or magnesium deprivation: substantial protection against cell death
β form of p38 MAPK
  inhibition of β form of p38 MAPK: inhibits
